Experimental data reported in patent US20120071539A1, “COMPOUNDS AND METHODS FOR MODULATING THE SILENCING OF A POLYNUCLEOTIDE OF INTEREST” (Emory University, priority 2006, published 2012).
“And” between values parts separate entries of the source, which are not always exact repeats. Equal entries are not always repeated. “Also recorded” adds a separate entry of the source.

Experiments:
tumor cell models = conditions: cited from earlier work
bladder cancer cells = conditions: cited from earlier work
RNAi-293-EGFP/RFP cells = experiment: dose-response of GFP/RFP signal ratio in RNAi-293-EGFP/RFP cells; format: cell-based; conditions: at 5 μM; 48 hours; versus Enoxacin 50 μM and 100 μM
Method: FIGS. 11A-11D show drug dose-responses for representative metal/Fe chelators. RNAi-293-EGFP/RFP cells were treated with each compound for 48 hours and the GFP/RFP signal ratio was plotted for relative RNAi-enhancing activity (%) using E50 (Enoxacin at 50 μM) as 100% activity.
An additional chemical library screen was performed to identify enhancers and suppressors of RNAi activity. In this screen, RNAi-293-EGFP cells were treated with compounds from a chemical library and endogenous RNAi activity was measured by GFP readout. Four particular compounds were identified in this screen. Further, all four compounds identified in this screen have metal/Fe chelating ability.
These four compounds were further tested by obtaining a drug dose-response curve for each compound at a wide range of concentrations in RNAi-293-EGFP/RFP. After 48 hours, GFP signals were measured by SpectraMax M2^e (Molecular Devices Corporation, Sunnyvale, Calif.). The GFP signals were then normalized over RFP signals to account for variability of cell numbers among wells and then plotted for relative RNAi-enhancing activity, which is set to 100% for a known RNAi-enhancing small molecule, e.g., Enoxacin at 50 μM.

[1] = tested on: siRNA-mediated mRNA degradation; experiment: cell-based reporter screen: human 293 cells stably expressing GFP plus siRNA hairpin against GFP; conditions: pilot screen of The Spectrum Collection; FIG. 3, FIG. 4
Method: FIG. 2 discloses one embodiment of the cell-based reporter system of the invention. In this example, a human 293-cell line stably expressing a reporter gene, GFP, was used. This cell line was further transfected with a construct that expresses siRNA hairpin against GFP, which can decrease the level of GFP expression. Individual clones were isolated with greatly (although not completely) reduced GFP expression.
Using the above-identified clones, a screen was performed using The Spectrum Collection (MicroSource Discovery Systems, Inc., Gaylordsville, Conn., United States of America), which contains 2000 biologically active and structurally diverse compounds from libraries of known drugs, experimental bioactives, and pure natural products. For example, in one embodiment, a pilot screen of this library identified one inhibitor and one enhancer of siRNA-mediated mRNA degradation.
To identify the chemical compounds that modulate the siRNA and miRNA pathway, a screening strategy was used. A human 293-cell line stably expressing a reporter gene, GFP, was used. This cell line was further transfected with a construct that expresses siRNA hairpin against GFP, which could knock down the expression of GFP. […] Using these clones, a screen was performed using The Spectrum Collection, which contains 2000 biologically active and structurally diverse compounds from libraries of known drugs, experimental bioactives, and pure natural products.
Human 293 cells stably expressing a reporter gene, GFP, were further transfected with a construct that expresses an siRNA hairpin against GFP, which results in the knock-down of the expression of GFP. Transfected cells containing the siRNA suppressed GPF expression were split and then treated with an effective amount of enoxacin (FIG. 4, second panel) and were grown for a period of 24-48 hours.

[2] = tested on: Clone#3, 293-EGFP-siGFP cells; experiment: plate-reader chemical library screen, GFP signal in Clone#3 cells; format: cell-based, human; conditions: 50 mM RNAi-E alone
Description: Further, in some embodiments, additional screens using the same library can be performed to identify other modulators of the siRNA and the miRNA pathways. In some embodiments, instead of examining the GFP signal visually under a microscope, the GFP signal can be quantified using an automatic plate reader. In such embodiments, two additional rounds of screening can be performed. In the first round of screening, the clones can be treated with compounds from a library, e.g., The Spectrum Collection, alone and the GFP level can be quantified after a period of time, e.g., 48 hours. In the second round of screening, the clones can be treated with compounds from a library, e.g., The Spectrum Collection, in the presence of 50 μM RNAi-E, i.e., enoxacin. This assay enables compounds that can modulate the activity of RNAi-E to be identified.
(§1) The presently disclosed chemical library also was screened using a plate reader to quantify the GFP signal intensity. The following screens were conducted: (1) repeating chemical screen using plate reader to quantify the GFP signal (50 mM each drug); (2) treating cells with 50 mM RNAi-I (30 mM each additional drug); and treating cells with […] (30 mM each additional drug).
(§2) For each screen, two types of cells were used: Clone#3 and EGFP. Clone#3 cells are 293-EGFP-siGFP and could be used to identify the modulators of the RNAi pathway. EGFP cells are 293-EGFP only and were used as a control to eliminate the compounds that could kill the cells or interfere GFP signals that are not related to RNAi pathway. The results for each screen are summarized in Table 2 and Table 3, respectively.
(§3) In these three screens, compounds were identified that could either enhance or inhibit RNAi activity in Clone#3, but had no effect on EGFP cells, which would indicate that these compounds might specifically work on RNAi pathway. The modulation of RNAi activity by these compounds was calculated as the percentage of GFP signal to Clone#3 control cells.

EGFP, 293-EGFP cells = experiment: plate-reader chemical library screen, GFP signal in control EGFP cells; format: cell-based, human; conditions: GFP signal; 50 mM RNAi-E
Method: as §1, §2, §3

[3] = tested on: shRNA against Luciferase mRNA; experiment: GL-3 luciferase reporter in cells expressing shRNA against luciferase; format: cell-based; conditions: FIG. 5
Description: In this example, a luciferase reporter construct GL-3 was transfected into the cells expressing shRNA against Luciferase mRNA.

miR-30a-3p = experiment: miRNA sensor Luc-T30 dual luciferase assay; format: cell-based; conditions: endogenously expressed miR-30; FIG. 6, FIG. 7
Description: (A) Design of a siRNA duplex against miR-30a precursor (siRNA-p) and a control siRNA duplex (siRNA-c). The miR-30a precursor is provided as SEQ ID NO:1. The siRNA target region is represented by nucleotides 21-40 of SEQ ID NO:1. The siRNA-p is provided as SEQ ID NO:2 and the siRNA-c is provided as SEQ ID NO:3. The double stranded siRNA is shown on the bottom and predicted pairing between one siRNA strand (blue) and the precursor target (green).
In FIG. 6, top left panel, the blue arrowheads in Luc-T30 indicate artificial target sequence against miR-30a-3p. Luc-AT30 has an artificial sequence complementary to that in Luc-T30. […] Relative luciferase activity was calculated by dividing the reporter (Firefly) luciferase activity with co-transfected Renilla luciferase activity. Luciferase activity was decreased by transfecting Luc-T30 in HepG2 (orange bars) without changes in the amount of its mRNA (blue bars). Error bars represent the standard deviation (SD) of three triplicate experiments. […] Error bars represent the standard deviation (SD) from three triplicate experiments. **P=0.004; *****P=0.00001.
This reporter contains the target sequence of miR-30. In the miR-30 system, the endogenously expressed miR-30 was used and, in this cell line, miR-30 has been processed completely. Thus, the addition of enoxacin had no effect.

miR-125a = experiment: Lin28 3'-UTR luciferase reporter in cells expressing miR-125a; format: cell-based
Description: Referring now to FIG. 8, the 3′-UTR of Lin28 mRNA, a target mRNA of miR-125a, was inserted into the 3′ end of luciferase reporter gene. Lin28-Del is the construct without the target sequence of miR-125a. Lin28 or Lin28-Del was transfected into cells expressing miR-125a. Although RNAi-E had no effect on Lin28-Del, the translation of Lin28 was suppressed by the expression of miR-125a.

c1ccc(CNC2CC(NCc3ccccn3)CC(NCc3ccccn3)C2)nc1 (centres unmarked) [Tachpyridine, tachpyridine]
anti-proliferative activity (tumor cell models): anti-proliferative activity
ferritin synthesis (bladder cancer cells): inhibit
proliferation of bladder cancer cells in culture (bladder cancer cells): inhibit

O=C(N/N=C/c1c(O)ccc2ccccc12)c1ccncc1 [compound 311, 2-hydroxy-1-naphthylaldehyde isonicotinoyl hydrazone]
RNAi-enhancing activity relative to Enoxacin (RNAi-293-EGFP/RFP cells): more effective than Enoxacin
anti-proliferative activity (tumor cell models): anti-proliferative activity; also recorded: anti-proliferation activity

CCn1cc(C(=O)O)c(=O)c2cc(F)c(N3CCNCC3)nc21 [enoxacin]
siRNA-mediated mRNA degradation and gene knock-down [1]: enhance siRNA-mediated mRNA degradation and gene knock-down
Clone#3, 293-EGFP-siGFP cells GFP signal intensity with RNAi-E [2]: 20289248 and 16615771 and 18695953 and 20015152
EGFP, 293-EGFP cells RNAi-E alone (EGFP, 293-EGFP cells): 177574932 and 1.78E+08 and 229622488 and 212666320 and 2.13E+08 and 138649048
knock-down efficiency of shRNA against luciferase mRNA [3]: increased the knock-down efficiency
miRNA-mediated translational suppression of Luc-T30 reporter (miR-30a-3p): no effect
suppression of the translation of Lin28 by miR-125a (miR-125a; Lin28 construct, FIG. 8): further enhanced this suppression
effect on Lin28-Del (miR-125a; construct without the target sequence of miR-125a): no effect

siRNA-c: control siRNA duplex, SEQ ID NO:3 (UGGUAGCAGUCAUGGCACATT; chemistry not given here)
miRNA-mediated translational suppression of Luc-T30 reporter (miR-30a-3p): no effect

siRNA-p: siRNA duplex against miR-30a precursor, SEQ ID NO:2 (UGGAAGCUGUGAAGCCACATT; chemistry not given here)
miRNA-mediated translational suppression of Luc-T30 reporter (miR-30a-3p): reversed the translational suppression
